# Where a SMILES comes first, the peptide text is derived from it. [ ]: non-standard residue; d: D form.
# Experiments:
# [1] = mouse, in vivo
# Protocol: (§1) Doses of 1 mg each were also administered to mice by the IP, SC and IM routes in solutions containing 0.18% tetradecyl beta-D-maltoside and compared to administration by oral gavage in a solution containing 0.3% (3 mg/mL wt/vol) of tetradecyl-beta-D-maltoside.
# (§2) Six week-old male Swiss Webster mice weighing approximately 30 gm were maintained at a constant temperature (24 C) with lights on from 07:00 to 19:00 h, and allowed food and water ad libitum until used for uptake studies. […] For sc, im, and ip delivery, the peptide was dissolved in sterile phosphate buffered saline (PBS, pH 7.2) at a concentration of 1 mg/200 μL as described previously containing 0.18% tetradecyl-beta-D-maltoside. For oral gavage [D-Leu-4]OB3 was dissolved in 0.3% dodecyl-beta-D-maltoside reconstituted in PBS (pH 7.2) at a concentration of 1 mg/200 μL. […]
# (§3) The [D-Leu-4]OB3 competitive ELISA assay was carried out as follows. […] Absorbance was read at 405 nm with a Molecular Devices microplate reader (MDS Sciex, Concord, Ontario Canada). […] The relative bioavailability was determined by plotting the serum concentrations of mouse [D-Leu-4]OB3 vs. time following ip, sc, or im delivery using the graphics program SigmaPlot™ 8.0 (SPSS Science, Chicago, Ill., USA). The area under each curve (AUC) was calculated with a function of this program.
# in vivo = conditions: male, Swiss Webster, mouse, po, 1 mg
# Protocol: as §1, §2, §3
# [2] = Oral absorption of calcium with alkylsaccharide; blood levels in volunteers; type: in vivo, human; conditions: oral gelatin capsules, calcium citrate admixed with 3% dodecyl maltoside
# Protocol: Calcium citrate is obtained from General Nutrition Corp. as 1000 mg tablets. The tablets are ground in a mortar and pestle until a fine uniform powder is created. The powder is admixed with 3% dodecyl maltoside, pharmaceutical grade (Inalco Chemical Co., Milan Italy) and filled into gelatin capsules, size #000-25 mm length (Capsuline, Pompano Beach, Fla.) and administered to volunteers. Blood samples are collected and calcium levels are measured by commercial clinical laboratory. The calcium blood levels obtained following oral administration with dodecyl maltoside are seen to be at least 20% higher than those obtained in the absence of dodecyl maltoside.
# [3] = Oral absorption of resveratrol with sucrose laurate; blood levels in volunteers; type: in vivo, human; conditions: oral gelatin capsules, admixed with 5% w/w sucrose laurate
# Protocol: Resveratrol was obtained from RevGenetics, Miami, Fla., as 300 mg gel capsules. Capsules were opened by carefully separating the two halves. The contents were combined and admixed with 5% w/w food grade sucrose laurate alkylsaccharide (Ryoto Sugar Ester M-1216, Mitsubishi-Kagaku Tokyo, Japan). Gelatin capsules were filled with the admixture and administered to volunteers. Blood samples are collected and resveratrol levels are measured by the method of Soleas et al. (Methods Enzymol 335: 130-45 (2001)). The resveratrol blood levels obtained following oral administration with sucrose laurate are at least 20% higher than those obtained in the absence of sucrose laurate.
smiles,measurement,setting,value
"CC(C)C[C@@H](NC(=O)[C@H](CO)NC(=O)[C@H](CS)NC(=O)[C@@H](N)CO)C(=O)N1CCC[C@H]1C(=O)N[C@@H](CCC(N)=O)C(=O)N[C@H](C(N)=O)[C@@H](C)O [[D-Leu-4]OB3, Ser-Cys-Ser-D-Leu-Pro-Gln-Thr] (H-SCS[dL]PQT-NH2; N-terminus assumed)",Relative Oral Bioavailability Compared to Three Injection Modes (% of AUC achieved by each respective injection),[1],37.8% of IM AUC
same,F rel,in vivo,47.3%
O=C([O-])CC(O)(CC(=O)[O-])C(=O)[O-].O=C([O-])CC(O)(CC(=O)[O-])C(=O)[O-].[Ca+2].[Ca+2].[Ca+2] [Calcium citrate],"calcium blood levels, increase versus absence of dodecyl maltoside",[2],at least 20%
Oc1ccc(C=Cc2cc(O)cc(O)c2)cc1 [Resveratrol],"resveratrol blood levels, increase versus absence of sucrose laurate",[3],at least 20%

# From US20120070487A1, “ALKYLSACCHARIDE COMPOSITIONS WITH NUTRACEUTICALS” (AEGIS THERAPEUTICS LLC, priority 2010, published 2012)
